Laboratory results reported in a melting point compilation (Tetko et al.).

melting point [°C] | Structure (SMILES)
143 to 147 | Cc1nnc(Sc2ccc(C=O)o2)n1C
234 to 238 | CC(C)CC(C)(N)P(=O)(O)O (stereo not drawn)
-4 | NC1CCC1
122 | CCOC(=O)Nc1ccc2nn(C3CCCC3)nc2c1
169 to 171 | CC(=O)Nc1ccc(C#N)cc1C(F)(F)F
69 | COc1c(F)cc(O)cc1F
151 | COc1cc(C(=O)O)cc(OC(C)=O)c1OC
102 to 105 | CS(=O)(=O)c1ccc(Br)cc1
114 to 116 | NC(=O)c1cc(F)ccc1F
81 to 83 | Cc1ccc(-n2c(C)cc(C(=O)CCl)c2C)cc1
256 | O=C(Nc1ccc(Cl)cc1)Nc1ccc(Cl)c(Cl)c1
190 | c1ccc2c(N=Nc3cccc4ccccc34)cccc2c1
260 | O=C(O)c1cc(=O)c2ccccc2o1
-10 to -8 | FC(F)(F)c1cc(Cl)c(Cl)c(Cl)c1
184 | Nc1nn2c(C(F)(F)F)cc(-c3cccs3)nc2c1/N=N/c1ccc(C(=O)O)cc1
28.9 | CCCCCCCCCCCCCCCCCC(=O)OCCC
216 | CC(C=CC=C(C)C=CC1=C(C)CC(O)CC1(C)C)=CC=CC=C(C)C=CC=C(C)C=CC1=C(C)CC(O)CC1(C)C (stereo not drawn)
161 to 164 | Cc1cc(O)c(C)c(O)c1
109 | N#Cc1cnc2ccccc2c1
158 to 162 | CCOC(=O)c1sc(SC)nc1NC(=O)Nc1ccc(Cl)c(Cl)c1
180 | CC(C)(C)N(NC(=O)c1ccccc1)C(=O)c1cccc(Cl)c1
234 | Clc1ccccc1-c1nc2ccccc2[nH]1
232 to 235 | O=C(CCl)N1CCc2c([nH]c3ccccc23)C1C(F)(F)F (stereo not drawn)
205 | CC12CCC(OC=O)CC1CCC1C2CCC2(C)C1CCC2(O)C#Cc1ccccc1 (stereo not drawn)
80 | CC1(C(=O)O)CC2C=CC1C2 (stereo not drawn)

melting point [°C] | Structure (SMILES)
149 to 150 | COC(=O)c1scc(C#N)c1N
137 | Cn1cccc1C(=O)O
46 to 49 | N#C[C@@H]1CCCC[C@H]1O (relative stereo)
163 | O=C(c1ccccc1)c1ccc(C(=O)c2ccccc2)cc1
147 to 148 | Cc1ccc(C(N)=O)c(N)c1
168 | Oc1ccc2c(c1)Cc1ccccc1-2
280 | Nc1nnc(-c2ccc([N+](=O)[O-])o2)s1
145 | Nc1c(Cl)ncnc1Cl
203 | NC(=O)CN1Cc2ccccc2OC1=O
153 to 157 | COc1cc([N+](=O)[O-])c(OC)cc1N
176 | CN(C)C(=O)C(c1ccccc1)C(O)c1ccccc1 (stereo not drawn)
140 to 143 | Nc1ccc(C(=O)c2ccccc2)cc1[N+](=O)[O-]
195 | O=C(O)c1cc2cc(Br)ccc2oc1=O
197 | CC(=O)CC(c1ccc([N+](=O)[O-])cc1)c1c(O)oc2ccccc2c1=O (stereo not drawn)
206 | N[C@@H](CCCC(=O)O)C(=O)O
104 | O=C(Cl)c1csc(Cc2c(Cl)cccc2Cl)n1
182 | Nc1cccc(-n2ccccc2=O)c1
56 | c1cc(N2CCCC2)ccn1
26 to 28 | S=C=NCc1ccc(Cl)cc1Cl
176 | O=C(C1=NOC2C(=O)N(c3ccc(Br)cc3)C(=O)C12)c1ccco1 (stereo not drawn)
122 | O=C1NC2CC=CCC12 (stereo not drawn)
49 to 53 | CCOC(=O)[C@H]1CCC(=O)N1
40 to 42 | CCOC(=O)CCc1ccc(O)cc1
156 | Cc1nc(/C(C#N)=C/c2ccco2)sc1/N=N/c1c(Cl)cc(Cl)cc1Cl
214 | c1ccc(N2CSc3nnc(-c4cccnc4)n3C2)cc1

melting point [°C] | Structure (SMILES)
109 | C(=C(/c1ccccc1)c1nc2ccccc2s1)/c1ccccc1
245 to 252 | CC(C)(C)C(N)P(=O)(O)O (stereo not drawn)
44 | CCCCCCCCCCCCCCCCCCNC
201 to 203 | Cc1nc(-c2ccccc2)c(C(=O)O)s1
98 | Brc1sc(Br)c2c1OCCO2
110 | O=Cc1cccc([N+](=O)[O-])c1O
179 | CCCC(O)C1(C)CCC(C(=O)O)C(C)(C)O1 (stereo not drawn)
46 to 48 | O=C(CBr)c1c(Cl)cc(C(F)(F)F)cc1Cl
204 to 207 | Cn1c2ccccc2c(=O)c2ccccc21
149 to 150 | Cc1nc(Br)sc1C(=O)O
91 | O=S(=O)(O)c1ccc2ccccc2c1
134 | Nc1ccc(CCC(=O)O)cc1
137 | CCCc1cc(C(N)=S)ccn1
-29 | CC1CCCCC1(C)C (stereo not drawn)
92 to 94 | Cc1ccc(O)c(C(=O)CC(=O)c2ccccc2)c1
162 to 163 | Nc1cc(Cl)c(Cl)cc1N
58.5 to 60 | Cc1cncc(Oc2ccc(Br)cc2)n1
48 to 52 | c1ccc2c(c1)OCCOCCOCCOCCOc1ccccc1OCCO2
158 to 162 | OC1(c2ccccc2)c2ccccc2Oc2ccccc21
110 to 120 | CC1=NN(c2ccc(Cl)cc2Cl)C(=O)C1C(Cl)C1(Cl)C(=O)N(c2ccc(Cl)cc2Cl)N=C1C (stereo not drawn)
309 to 310 | COc1c(Br)ccc2c1C(=NNc1ccc([N+](=O)[O-])cc1[N+](=O)[O-])C2
29 | CCOC(=O)c1cc(C)on1
177 | Cc1cn(C2CC(F)C(CO)O2)c(=O)[nH]c1=O (stereo not drawn)
78 | O=[N+]([O-])c1ccc(S(=O)(=O)Cl)cc1
86 to 87 | Clc1nccc(-c2ccccc2)n1

melting point [°C] | Structure (SMILES)
159 | Cc1ccc(S(=O)(=O)N2CCCN(S(=O)(=O)c3ccc(C)cc3)CC(=O)NCCCNC(=O)C2)cc1
50 | CSc1ccc(N=C=S)cc1
103 | CC12CCC(C(Br)=C(Br)C1=O)C2(C)C (stereo not drawn)
154 to 156 | O=Cc1cc(Cl)c(O)c(Cl)c1
-43 | CCCCCCC1CCCCC1
267 to 270 | O=C1OC(=O)C23Cc4ccccc4CC12Cc1ccccc1C3 (stereo not drawn)
48 | CC#CC1(O)CCCCC1
118 | O=CC=Cc1ccc([N+](=O)[O-])o1
40 | CC(C)(C)OC(=O)N1CC(O)C1
127 to 129 | Cc1onc(-c2c(F)cccc2Cl)c1C(N)=O
241 to 243 | CC(CN(CC(=O)O)CC(=O)O)N(CC(=O)O)CC(=O)O (stereo not drawn)
238 | NC(=O)NC1NC(=O)NC1=O (stereo not drawn)
202 to 207 | CC(=O)Nc1cc(Cl)ccc1C(=O)O
136 | NC(=O)C(F)(F)C(F)(F)C(F)(F)C(F)(F)C(F)(F)C(F)(F)F
139 | Nc1ccc(N=Nc2ccccc2)c(N)n1
181 | CC(CC(=O)O)C1CCC2C3C=CC4CC(O)CCC4(C)C3CC(O)C12C (stereo not drawn)
83 | O=C1CC(c2ccccc2)Cc2ccncc21 (stereo not drawn)
171 | CN(C)c1ccc(C(O)C2C(=O)N(c3ccccc3)N=C2C(F)(F)F)cc1 (stereo not drawn)
181 | CCNc1c(C=O)c(=O)oc2ccccc12
58 to 60 | OCc1cccc(COc2ccccc2)c1
206 | CC(=O)OCC(=O)C1(O)CCC2C3CC(C)C4=CC(=O)C=CC4(C)C3C(O)CC21C (stereo not drawn)
46 | Oc1ccc(C(F)(F)F)cc1
53 | Oc1cc(F)cc(F)c1
130 to 133 | CSc1nc(N)n[nH]1
-85 | C#CCCCC#C

melting point [°C] | Structure (SMILES)
185 to 186 | Cc1nc(-c2cccc(-n3cccc3)c2)sc1C(=O)NN
168 to 170 | COC(=O)c1c(C)n[nH]c1-c1cc(C)on1
127 to 128 | CC(=O)C(=Cc1ccc(-c2ccccc2[N+](=O)[O-])o1)C(C)=O
133 | COc1ccc([N+](=O)[O-])c(C(=O)O)c1
75 | BrC(Br)=Cc1ccccc1
195 | NNC(=O)c1ccc(N)cc1O
200 to 201 | CCCCc1c(C)nc(NC(=O)NS(=O)(=O)c2cccs2)nc1O
127 to 128 | c1cc(-c2cnco2)ccn1
222 to 223 | CS(=O)(=O)c1ccc2nc(N)sc2c1
99 to 100 | OC1CCN(c2nccc(C(F)(F)F)n2)CC1
167 | CSc1cc(-c2ccc(Cl)cc2)c2c(=O)n(-c3ccccc3)n(C)c2c1
190 to 195 | Fc1c(F)c(F)c(P(CCP(c2c(F)c(F)c(F)c(F)c2F)c2c(F)c(F)c(F)c(F)c2F)c2c(F)c(F)c(F)c(F)c2F)c(F)c1F
95 | O=C1CC2CCC1C2 (stereo not drawn)
211 | Cc1nc(/C(C#N)=N/Nc2cccc(C(F)(F)F)c2)sc1/N=N/c1ccc(F)cc1
137 to 139 | c1ccc(CSc2nnc(SCc3ccccc3)nn2)cc1
146 | CCC12CCCN(CCc3c([nH]c4ccccc34)CC1)C2 (stereo not drawn)
114 to 116 | OCC(O)CC(F)(F)C(F)(F)C(F)(F)C(F)(F)C(F)(F)C(F)(F)C(F)(F)C(F)(F)F (stereo not drawn)
215 | Cc1[nH]c2nc(C(F)(F)F)nn2c(=O)c1Cl
117 | Cc1cccc2c1C(=O)OC2O (stereo not drawn)
255 | S=c1oc2ccccc2n1CN1CCCCC1
178 | NC(=O)/C(=C\c1ccc(F)cc1)c1nc2ccccc2s1

Structure (SMILES) | melting point [°C]
CC12CCC(O)CC1CCC1C2C(O)CC2(C)C(c3ccc(=O)oc3)CCC12O (stereo not drawn) | 254
O=C(O)CCCCCCCCCCCO | 86.5
O=[N+]([O-])c1ccc(NCc2ccccc2)c2nonc12 | 206 to 209
CC12CCC3C(CCC4=CC(=O)C=CC43O)C1CCC2=O (stereo not drawn) | 219 to 221
CC(CCl)OP(=O)(OC(C)CCl)OC(C)CCl (stereo not drawn) | -40
ClCc1nnc(C2CC2)s1 | 80 to 84
COc1ccc2[nH]cc(CCN(C(C)C)C(C)C)c2c1 | 181
